± gives the expanded uncertainty stated by the source.
Tests used:
[1] = mn = molality of the nth substance listed, in mol/kg; conditions: 298 K, 100 kPa, Liquid, Vibrating tube method
[2] = osmotic coefficient (dimensionless); mn = molality of the nth substance listed, in mol/kg; conditions: 100 kPa, Liquid, boiling point elevation

CN(C)CC(=O)O [(Dimethylamino)acetic acid] + O
[1]
Conditions	mass density [kg/m3]
m1 = 0.4001	1005.64 ± 1.1
m1 = 1.003	1016.88 ± 1.2
m1 = 1.401	1024.01 ± 1.2
m1 = 1.992	1033.69 ± 1.2

[2]
Conditions	osmotic coefficient
310.15 K, m1 = 0.0986	1.069 ± 0.0087
310.15 K, m1 = 0.2005	1.035 ± 0.0088
310.15 K, m1 = 0.4001	1.072 ± 0.0088
310.15 K, m1 = 0.8024	1.076 ± 0.0094
310.15 K, m1 = 1.003	1.126 ± 0.01
310.15 K, m1 = 1.193	1.141 ± 0.011
310.15 K, m1 = 1.401	1.147 ± 0.0097
310.15 K, m1 = 1.585	1.154 ± 0.0098
310.15 K, m1 = 1.797	1.169 ± 0.01
310.15 K, m1 = 1.992	1.206 ± 0.011
323.15 K, m1 = 0.2056	0.981 ± 0.0084
323.15 K, m1 = 0.2889	0.989 ± 0.0084
323.15 K, m1 = 0.4998	1.008 ± 0.0087
323.15 K, m1 = 1.015	1.021 ± 0.0088
323.15 K, m1 = 1.5	1.114 ± 0.009

C[N+](C)(C)[O-] [trimethylamine oxide] + O
[1]
Conditions	mass density [kg/m3]
m1 = 0.406	998.235 ± 1.1
m1 = 0.7971	999.133 ± 1.1
m1 = 1.199	1000.21 ± 1.1
m1 = 1.59	1001.54 ± 1.1
m1 = 2.002	1002.01 ± 1.1
m1 = 2.445	1003.03 ± 1.1

[2]
Conditions	osmotic coefficient
310.15 K, m1 = 0.1988	0.9879 ± 0.0081
310.15 K, m1 = 0.406	1.034 ± 0.0082
310.15 K, m1 = 0.62	1.062 ± 0.0084
310.15 K, m1 = 0.7971	1.152 ± 0.0097
310.15 K, m1 = 0.9921	1.133 ± 0.0094
310.15 K, m1 = 1.199	1.15 ± 0.0098
310.15 K, m1 = 1.392	1.192 ± 0.011
310.15 K, m1 = 1.59	1.31 ± 0.014
323.15 K, m1 = 0.5008	1.076 ± 0.0085
323.15 K, m1 = 1.015	1.171 ± 0.01
323.15 K, m1 = 1.5	1.27 ± 0.013

NC(=O)NCCC[C@H](N)C(=O)O [N5-aminocarbonyl-L-ornithine] + O
[1]
Conditions	mass density [kg/m3]
m1 = 0.1989	1008.22 ± 1.1
m1 = 0.3842	1018.59 ± 1.2
m1 = 0.6007	1029 ± 1.2

osmotic coefficient, [2]
Conditions	m1 = 0.1011	m1 = 0.1989	m1 = 0.2016	m1 = 0.3942	m1 = 0.402	m1 = 0.4915	m1 = 0.6001	m1 = 0.6892
310.15 K	1.011 ± 0.008	1.003 ± 0.008	–	0.9986 ± 0.008	–	0.9973 ± 0.008	–	1.002 ± 0.008
323.15 K	–	–	1.007 ± 0.008	–	1.001 ± 0.008	–	0.9931 ± 0.008	–

OC[C@H]1O[C@H](O[C@H]2O[C@H](CO)[C@@H](O)[C@H](O)[C@H]2O)[C@H](O)[C@@H](O)[C@@H]1O [α-trehalose] + O
[1]
Conditions	mass density [kg/m3]
m1 = 0.1997	1022.61 ± 1.2
m1 = 0.3989	1046.2 ± 1.2
m1 = 0.5995	1068.34 ± 1.2
m1 = 0.7914	1087.59 ± 1.3

[2], 310.15 K
Conditions	osmotic coefficient
m1 = 0.0499	1.031 ± 0.0081
m1 = 0.0998	1.036 ± 0.0081
m1 = 0.1997	1.02 ± 0.008
m1 = 0.2995	0.999 ± 0.008
m1 = 0.3989	1.01 ± 0.008
m1 = 0.4992	1.022 ± 0.008
m1 = 0.5995	0.9904 ± 0.008
m1 = 0.6932	1.019 ± 0.008
m1 = 1.469	1.063 ± 0.0083
m1 = 1.982	1.08 ± 0.0085

Source: the NIST ThermoML archive (doi:10.1016/j.fluid.2015.07.004)
